Source: ChEMBL document CHEMBL1133657, “Synthesis and pharmacological characterization of [(125)I]iodomethyllycaconitine ([(125)I]iodo-MLA). A new ligand for the alpha(7) nicotinic acetylcholine receptor” (J Med Chem, 2000)

Experiments:
Rattus norvegicus [1] = organism: Rattus norvegicus; experiment: Bmax value(fmol/mg )was evaluated in rat brain using [125I]iodo-MLA
Rattus norvegicus [2] = organism: Rattus norvegicus; experiment: Affinity constant Kd(nM) in rat brain cerebral cortex homogenates.
Rattus norvegicus [3] = organism: Rattus norvegicus; experiment: Bmax value(fmol/mg protein) was evaluated in rat brain using [3H]MLA

Row | SMILES | Bmax (Rattus norvegicus [1]) | Kd (Rattus norvegicus [2]) | Bmax (Rattus norvegicus [3])
1 | CCN1C[C@]2(COC(=O)c3cc([125I])ccc3N3C(=O)C[C@H](C)C3=O)CC[C@H](OC)[C@@]34[C@@H]5C[C@H]6[C@H](OC)[C@@H]5[C@](O)(C[C@@H]6OC)[C@](O)([C@@H](OC)[C@H]23)[C@@H]14 | 68 fmol/mg | – | –
2 | [3H]c1cccc(N2C(=O)C[C@H](C)C2=O)c1C(=O)OC[C@@]12CC[C@H](OC)[C@@]34[C@@H]5C[C@H]6[C@H](OC)[C@@H]5[C@](O)(C[C@@H]6OC)[C@](O)([C@@H](OC)[C@H]13)[C@H]4N(CC)C2 [METHYLLYCACONITINE[3H] MLA] | – | 1.9 nM | 65 fmol/mg
